This test has as its target gp96 (Canis lupus, UniProt P41148). Nature of the test: gamma-32P ATP ATPase assay with purified gp96. It counts as biochemical.

1 molecule from publication PMC4896225 (Journal of immunology (Baltimore, Md. : 1950), 2016) can be followed below.

The structures appear in SMILES notation.

Sequence of gp96 (P41148 22-804): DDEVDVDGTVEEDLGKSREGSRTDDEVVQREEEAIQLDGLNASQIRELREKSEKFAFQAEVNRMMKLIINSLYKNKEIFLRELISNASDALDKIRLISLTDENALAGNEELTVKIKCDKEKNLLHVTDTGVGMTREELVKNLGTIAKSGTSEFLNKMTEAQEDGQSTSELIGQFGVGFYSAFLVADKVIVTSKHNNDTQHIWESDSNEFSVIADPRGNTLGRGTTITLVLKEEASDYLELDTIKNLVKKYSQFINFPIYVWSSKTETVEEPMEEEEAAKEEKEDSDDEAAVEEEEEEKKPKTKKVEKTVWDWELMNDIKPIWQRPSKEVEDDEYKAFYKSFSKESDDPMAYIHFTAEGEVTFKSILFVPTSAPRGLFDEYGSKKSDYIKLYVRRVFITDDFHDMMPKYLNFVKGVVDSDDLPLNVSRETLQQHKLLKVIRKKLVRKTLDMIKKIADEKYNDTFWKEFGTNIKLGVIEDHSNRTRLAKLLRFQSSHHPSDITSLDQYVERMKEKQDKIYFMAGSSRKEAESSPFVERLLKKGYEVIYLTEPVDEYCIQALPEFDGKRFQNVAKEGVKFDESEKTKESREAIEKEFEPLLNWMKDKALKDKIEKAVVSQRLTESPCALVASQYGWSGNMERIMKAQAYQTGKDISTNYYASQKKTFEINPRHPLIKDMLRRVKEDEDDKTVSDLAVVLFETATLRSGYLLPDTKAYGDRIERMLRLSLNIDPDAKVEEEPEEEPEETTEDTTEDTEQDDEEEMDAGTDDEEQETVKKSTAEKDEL

A word on the IC50: it is the point on the concentration scale where inhibition reaches its midpoint. In turn, `C/C(=N\NC(=N)N)c1cc(NC(=O)CCCCCCCCC(=O)Nc2cc(/C(C)=N/NC(=N)N)cc(/C(C)=N/NC(=N)N)c2)cc(/C(C)=N/NC(=N)N)c1` [Semapimod, N, N’-bis [3,5-diacetylphenyl] decanediamide tetrakis [amidinohydrazone]] had an IC50 of roughly 0.3 µM.
